Patent US8043815B2, “Methods for analysis of PDEF and survivin as interconnected cancer biomarkers and targets for personalized medicine” (Health Research, Inc., priority 2007, dated 2011)

Assays:
Type in all cases: cell-based
[1] = system: HCT116 colon cancer cells with double knockout (DKO) of DNMT1 and DNMT3b; assay: Western blot of survivin and PDEF expression in HCT116 DNMT1/DNMT3b double knockout cells; conditions: treated for 3 days
Experimental: (§1) FIG. 7 provides a photographic representation of results obtained from differential modulation of survivin and PDEF expression in an HCT116 parental colon cancer cell line, versus in an HCT116 cell line in which both the DNMT1 and DNMT3b DNA methyltransferases have been knocked out. Both HCT116 parental and double knockout (DNMT1^−/−/DNMT3B^−/−) colon cancer cell lines were treated with and without the methylation inhibitor 5-Aza-dC for 3 days as shown. Cells were lysed and analyzed for the expression of survivin and PDEF by western blots. Actin is the internal control of protein loading.
(§2) Since it is know that the survivin gene is not methylated, despite our identification of a CpG island in the survivin gene, this Example further supports that demethylation of PDEF via a DNA methylation inhibitor can facilitate downregulation of survivin expression.

[2] = system: PDEF-negative ovarian cancer cell lines; assay: Western blot of PDEF and survivin expression in PDEF-negative ovarian cancer cell lines treated with methylation inhibitor
Experimental: FIGS. 6A and 6B provide photographic representations of results obtained from Western blotting analysis of PDEF expression in PDEF-negative ovarian cancer cell lines treated with and without 5-aza-2-deoxycytidine (5-Aza-dC) for 5 days at 1 μM (FIG. 6A) or different concentrations of 5-Aza-dC (FIG. 6B).
We analyzed whether the loss of PDEF expression in cancer tissues during cancer progression is the result of epigenetic methylation of the PDEF gene. Four PDEF-negative ovarian cancer cell lines were treated with and without the methylation inhibitor 5-aza-2-deoxycytidine (5-Aza-dC) for 5 days at 1 μM (FIG. 6A) or different concentration of 5-Aza-dC (FIG. 6B). Cells were then lysed and analyzed for PDEF expression by Western blots.

[3] = system: HCT116 parental colon cancer cells; assay: Western blot of survivin and PDEF expression in HCT116 parental colon cancer cells; conditions: treated for 3 days
Experimental: as §1, §2

[4] = system: MDA-MB-231 breast cancer cells; assay: Cell growth and cell death of MDA-MB-231 cells after sequential MSA / Zebularine treatment (digital images); conditions: images 48 hours after new medium replacement
Experimental: (§3) FIG. 8 provides a photographic representation of results showing a synergistic effect of DNA methylation inhibitors in combination with DNA methylation inducers/promoters on massive cancer cell death. Sequential treatment of MDA-MB-231 breast cancer cells with methylseleninic acid (MSA, a DNA methylation inducer/promoter) for 48 hours and Zebularine (a DNA methylation inhibitor) for 24 hours alone or in combination as shown. Growth medium with drugs was replaced with complete new medium without drugs 24 hour after Zebularine treatment. Images were then taken using a digital camera 48 hours after new medium replacement.
as §3, with “Sequential” for “FIG. 8 provides a photographic representation of results showing a synergistic effect of DNA methylation inhibitors in combination with DNA methylation inducers/promoters on massive cancer cell death. Sequential”

Structure (SMILES) | PDEF expression by western blots [1] | survivin expression by western blots [1] | PDEF expression by western blots ([2]; four PDEF-negative ovarian cancer cell lines, 5 days at 1 μM or different concentration) | expression of survivin by Western blots ([2]; ovarian cancer cell lines with restored PDEF expression, different concentrations of 5-Aza-dC, 5 days (FIG. 6B)) | PDEF expression by western blots [3] | survivin expression by western blots [3] | cell growth inhibition ([4]; MSA 48 hours, Zebularine 24 hours, alone) | induction of cell death ([4]; alone or sequential combination (MSA then Zebularine))
Nc1ncn([C@H]2C[C@H](O)[C@@H](CO)O2)c(=O)n1 [5-Aza-dC, 5-aza-2-deoxycytidine] | no effect | no effect | two of the four ovarian cancer cell lines showed restored expression of PDEF | reduces or eliminates the expression of survivin | induces PDEF expression | decreases survivin expression | – | –
C[Se](=O)O [MSA, methylseleninic acid] | – | – | – | – | – | – | only moderately inhibit cell growth | without induction of cell death
